In patent US10865191B2, “Heterocyclic compounds useful as modulators of TNF alpha” (BRISTOL-MYERS SQUIBB COMPANY, priority 2015, dated 2020):

The molecules below were run against TNFα (Homo sapiens, UniProt P01375) (assay: TNF induced HEK-Blue assay (NF-kB-driven secreted alkaline phosphatase reporter)). Conditions: TNF induced HEK-Blue assay IC50 value, TNFα 0.5 ng/mL, HEK-Blue-CD40L cells, 18 h.
Type: cell-based
Summary of the method: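 HEK-Blue-CD40L cells (NF-kB-driven SEAP reporter), 20,000/well, added after 30 min pre-incubation of compound (0.004–25 μM final) with TNFα 0.5 ng/mL final at 37 °C; 18 h incubation. SEAP read with QUANTI-Blue at 620 nm; IC50 from 4-parameter logistic fit, normalized to unstimulated and stimulated DMSO controls.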

TNFα, sequence (P01375 77-233 limits assumed): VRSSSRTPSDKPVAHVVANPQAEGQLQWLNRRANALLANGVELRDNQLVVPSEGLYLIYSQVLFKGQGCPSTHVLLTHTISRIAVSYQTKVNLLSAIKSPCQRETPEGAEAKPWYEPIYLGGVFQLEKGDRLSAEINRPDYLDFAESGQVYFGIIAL

IC50 [nM] | SMILES
< 1000 | C[C@@H](Nc1c(Cl)cnc2ccc(-c3cnc(C(C)(C)O)nc3)cc12)c1ccccc1 [Example 154, (R)-2-(5-(3-chloro-4-((1-phenylethyl)amino)quinolin-6-yl)pyrimidin-2-yl)propan-2-ol]

Same assay, conditions: TNFα 0.5 ng/mL, HEK-Blue-CD40L cells, 18 h; read-out: TNF induced HEK-Blue assay IC50 value

IC50 [nM] | SMILES
< 1000 | CCC(Nc1c(Cl)cnc2ccc(-c3cnc(C(C)(C)O)nc3)cc12)c1nc(C(O)CO)ccc1F (centres unmarked) [Example 127, 1-(6-(1-((3-chloro-6-(2-(2-hydroxypropan-2-yl)pyrimidin-5-yl)quinolin-4-yl)amino)propyl)-5-fluoropyridin-2-yl)ethane-1,2-diol]
1000 to 10000 | CCC(Nc1c(Cl)cnc2ccc(-c3cnc(C(C)(C)O)nc3)cc12)c1nc(C(=O)O)ccc1F (centres unmarked) [Example 128, 6-(1-((3-chloro-6-(2-(2-hydroxypropan-2-yl)pyrimidin-5-yl)quinolin-4-yl)amino)propyl)-5-fluoropicolinic acid]
< 1000 | CCC(Nc1c(Cl)cnc2ccc(-c3cnc(C(C)(C)O)nc3)cc12)c1nc(C(N)=O)ccc1F (centres unmarked) [Example 129, 6-(1-((3-chloro-6-(2-(2-hydroxypropan-2-yl)pyrimidin-5-yl)quinolin-4-yl)amino)propyl)-5-fluoropicolinamide]
< 1000 | CCC(Nc1c(Cl)cnc2ccc(-c3cnc(C(C)(C)O)nc3)cc12)c1nc(CO)ccc1F (centres unmarked) [Example 130, 2-(5-(3-chloro-4-((1-(3-fluoro-6-(hydroxymethyl)pyridin-2-yl)propyl)amino)quinolin-6-yl)pyrimidin-2-yl)propan-2-ol]
1000 to 10000 | CC(=O)NC1CCC(O)(c2ncc(-c3ccc4ncc(Cl)c(N[C@H](C)c5ccccc5F)c4c3)cn2)CC1 (stereo partly drawn) [Example 131, (R)—N-(4-(5-(3-chloro-4-((1-(2-fluorophenyl)ethyl)amino)quinolin-6-yl)pyrimidin-2-yl)-4-hydroxycyclohexyl)acetamide]
1000 to 10000 | CC(=O)NC1CCC(O)(c2ncc(-c3ccc4ncc(Cl)c(N[C@H](C)c5ccccc5F)c4c3)cn2)CC1 (stereo partly drawn) [Example 132, (R)—N-(4-(5-(3-chloro-4-((1-(2-fluorophenyl)ethyl)amino)quinolin-6-yl)pyrimidin-2-yl)-4-hydroxycyclohexyl)acetamide]
< 1000 | C[C@@H](Nc1c(Cl)cnc2ccc(-c3cnc(C(C)(C)O)nc3)cc12)c1cccc(N2CCOCC2)c1 [Example 136, (R)-2-(5-(3-chloro-4-((1-(3-morpholinophenyl)ethyl)amino)quinolin-6-yl)pyrimidin-2-yl)propan-2-ol]
10000 to 25000 | CC(C)(O)c1ncc(-c2ccc3ncc(Cl)c(NCc4ccc(C(F)(F)F)cc4)c3c2)cn1 [Example 145, 2-(5-(3-chloro-4-(4-(trifluoromethyl)benzylamino)quinolin-6-yl)pyrimidin-2-yl)propan-2-ol]
< 1000 | CC(C)(O)c1ncc(-c2ccc3ncc(Cl)c(NCc4ccccc4C(F)(F)F)c3c2)cn1 [Example 146, 2-(5-(3-chloro-4-((2-(trifluoromethyl)benzyl)amino)quinolin-6-yl)pyrimidin-2-yl)propan-2-ol]
1000 to 10000 | CC(C)(O)c1ncc(-c2ccc3ncc(Cl)c(NCc4ccc(OC(F)F)cc4)c3c2)cn1 [Example 148, 2-(5-(3-chloro-4-((4-(difluoromethoxy)benzyl)amino)quinolin-6-yl)pyrimidin-2-yl)propan-2-ol]
< 1000 | CC(C)(O)c1ncc(-c2ccc3ncc(Cl)c(NC4(c5ccccc5F)CC4)c3c2)cn1 [Example 158, 2-(5-(3-chloro-4-((1-(2-fluorophenyl)cyclopropyl)amino)quinolin-6-yl)pyrimidin-2-yl)propan-2-ol]
1000 to 10000 | CC(C)(O)c1ncc(-c2ccc3ncc(Cl)c(NC4(c5ccccc5)CC4)c3c2)cn1 [Example 161, 2-(5-(3-chloro-4-((1-phenylcyclopropyl)amino)quinolin-6-yl)pyrimidin-2-yl)propan-2-ol]
10000 to 25000 | COc1nc2ccc(-c3cnc(C(C)(C)O)nc3)cc2c(Nc2cc(C)ccc2C)c1C [Example 180, 2-(5-(4-(2,5-dimethylphenylamino)-2-methoxy-3-methylquinolin-6-yl)pyrimidin-2-yl)propan-2-ol]
